The source of these data is US7777035B2, “Azaindazole compounds and methods of use” (Chemocentryx, Inc., priority 2005, dated 2010).

A value given as a limit tells only on which side of the number the result lay.

This experiment has as its target T1, CCR1 (Homo sapiens, UniProt P32246).
T1 construct: host or cells: THP-1 cells or monocytes isolated from human buffy coats
T1 sequence (P32246 1-355): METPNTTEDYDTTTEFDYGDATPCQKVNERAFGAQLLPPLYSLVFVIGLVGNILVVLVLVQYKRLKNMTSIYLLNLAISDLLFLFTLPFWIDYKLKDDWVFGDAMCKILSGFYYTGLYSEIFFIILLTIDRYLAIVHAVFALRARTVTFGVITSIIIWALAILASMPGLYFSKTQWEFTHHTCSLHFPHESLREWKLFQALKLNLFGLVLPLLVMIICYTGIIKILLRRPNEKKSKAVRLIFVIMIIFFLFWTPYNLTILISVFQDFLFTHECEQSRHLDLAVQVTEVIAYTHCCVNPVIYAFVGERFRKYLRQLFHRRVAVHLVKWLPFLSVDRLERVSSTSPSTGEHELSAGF
Briefly: CCR1 chemotaxis assay or binding assay (activity given for either). The settings on record: either the chemotaxis assay or binding assay; CCR1 expressing cells (THP-1 or human monocytes); read-out: Activity (IC50 class). The procedure:
Cells were grown under 5% CO2/95% air, 100% humidity at 37° C. and subcultured twice weekly at 1:5 (cells were cultured at a density range of 2×10^5 to 2×10^6 cells/mL) and harvested at 1×10^6 cells/mL. THP-1 cells express CCR1 and can be used in CCR1 binding and functional assays.
Monocytes were isolated from human buffy coats using the Miltenyi bead isolation system (Miltenyi, Auburn, Calif.). Briefly, following a Ficoll gradient separation to isolate peripheral blood mononuclear cells, cells were washed with PBS and the red blood cells lysed using standard procedures. Remaining cells were labeled with anti-CD14 antibodies coupled to magnetic beads (Miltenyi Biotech, Auburn, Calif.). Labeled cells were passed through AutoMACS (Miltenyi, Auburn, Calif.) and positive fraction collected. Monocytes express CCR1 and can be used in CCR1 binding and functional assays.
CCR1 expressing cells were centrifuged and resuspended in assay buffer (20 Mm HEPES pH 7.1, 140 Mm NaCl, 1 Mm CaCl2, 5 Mm MgCl2, and with 0.2% bovine serum albumin) to a concentration of 5×10^6 cells/mL for THP-1 cells and 5×10^5 for monocytes. Binding assays were set up as follows. […] Reactions were aspirated onto GF/B glass filters pre-soaked in 0.3% polyethyleneimine (PEI) solution, on a vacuum cell harvester (Packard Instruments; Meriden, Conn.). Scintillation fluid (40 μl; Microscint 20, Packard Instruments) was added to each well, the plates were sealed and radioactivity measured in a Topcount scintillation counter (Packard Instruments). Control wells containing either diluent only (for total counts) or excess MIP-1α or MIP-1β (1 μg/mL, for non-specific binding) were used to calculate the percent of total inhibition for compound. The computer program Prism from GraphPad, Inc. (San Diego, Calif.) was used to calculate IC50 values.
Chemotaxis assays were performed using 5 ┌ m pore polycarbonate, polyvinylpyrrolidone-coated filters in 96-well chemotaxis chambers (Neuroprobe; Gaithersburg, Md.) using chemotaxis buffer (Hank's balanced salt solution (HBSS) and 1% FBS). CCR1 chemokine ligands (i.e., MIP-1α, CCL15/Leukotactin; R&D Systems; Minneapolis, Minn.) are use to evaluate compound mediated inhibition of CCR1 Mediated migration. Other chemokines (i.e., SDF-1α; R&D Systems; Minneapolis, Minn.) are used as specificity controls. […] The chambers were incubated 1-2 hours at 37° C., and the number of cells in the lower chamber quantified either by direct cell counts in five high powered fields per well or by the CyQuant assay (Molecular Probes), a fluorescent dye method that measures nucleic acid content and microscopic observation.
THP-1 cells and monocytes lack other chemokine receptors that bind the same set of chemokine ligands as CCR1 (i.e., MIP-1α, MPIF-1, Leukotactin, etc.). Equal numbers of cells were added to each well in the plate. The cells were then incubated with radiolabeled MIP-1α. Unbound ligand was removed by washing the cells, and bound ligand was determined by quantifying radioactive counts. […] Percent inhibition was determined by the equation: […]
In the assay, the amount of compound was varied; while cell number and ligand concentration were held constant.
One of the primary functions of chemokines is their ability to mediate the migration of chemokine receptor-expressing cells, such as white blood cells. […] THP-1 Myelomonocytic leukemia cells, which resemble monocytes, as wells as freshly isolated monocytes, were used as targets for chemoattraction by CCR1 chemokine ligands (i.e., MIP-1α, CCL15/leukotactin). […] In this assay, the amount of compound was varied; while cell number and chemokine agonist concentrations were held constant. After the chemotaxis chambers were incubated 1-2 hours at 37° C., the responding cells in the lower chamber were quantified by labeling with the CyQuant assay (Molecular Probes), a fluorescent dye method that measures nucleic acid content, and by measuring with a Spectrafluor Plus (Tecan).

For orientation: IC50 means the concentration at which inhibition is half-maximal. Regarding `COc1cc(N2CCN(C(=O)Cn3ncc4ncccc43)CC2)ccc1Cl` [Compound 1.028], the IC50 is less than 1000 nM. To `COc1cc(N2CCN(C(=O)Cn3nc(-c4ncon4)c4cccnc43)CC2)ccc1Cl` [Compound 1.058] belongs less than 1000 nM; to `COc1cc(N2CCN(C(=O)Cn3ncc4cnccc43)[C@@H](C)C2)c(F)cc1Cl` [Compound 1.008], less than 1000 nM; to `COc1cc(N2CCN(C(=O)Cn3cc4cccnc4n3)CC2)c(F)cc1Cl` [Compound 1.013], less than 1000 nM. Regarding `COc1cc(N2CCN(C(=O)Cn3ncc4ccc(N=[N+]=[N-])nc43)CC2)ccc1Cl` [Compound 1.048], the IC50 is less than 1000 nM. To `COc1cc(N2CCN(C(=O)Cn3nc(-c4ncc[nH]4)c4cccnc43)C[C@H]2C)ccc1Cl` [Compound 1.071] belongs less than 1000 nM; to `COc1cc(N2CCN(C(=O)Cn3nc(C)c4cc([N+](=O)[O-])cnc43)CC2)ccc1Cl` [Compound 1.054], less than 1000 nM; to `COc1cc(N2CCN(C(=O)Cn3nc(F)c4cccnc43)CC2)ccc1Cl` [Compound 1.016], less than 1000 nM.

Turning to `COc1cc(N2CCN(C(=O)Cn3ncc4c(S(C)(=O)=O)ccnc43)CC2)ccc1Cl` [Compound 1.039], the IC50 was less than 1000 nM.

Take `COc1cc(N2CCN(C(=O)Cn3nc(I)c4cccnc43)CC2)ccc1Cl` [Compound 1.063]: the IC50 is less than 1000 nM. As for `COc1cc(N2CCN(C(=O)Cn3ncc4cc(Cl)cnc43)CC2)ccc1Cl` [Compound 1.042], the figure is less than 1000 nM. As for `COc1cc(N2CCN(C(=O)Cn3ncc4ccnc(N)c43)CC2)ccc1Cl` [Compound 1.051], the figure is less than 1000 nM; as for `COc1cc(N2CCN(C(=O)Cn3cc4ncccc4n3)CC2)ccc1Cl` [Compound 1.027], less than 1000 nM; as for `COc1cc(N2CCN(C(=O)Cn3nc(C)c4cccnc43)CC2)ccc1Cl` [Compound 1.023], less than 1000 nM.

As to `COc1cc(N2CCN(C(=O)Cn3nc4ncccc4c3Cl)CC2)ccc1Cl` [Compound 1.029], the IC50 was less than 1000 nM. Take `COc1cc(N2CCN(C(=O)Cn3ncc4ccc(N)nc43)CC2)ccc1Cl` [Compound 1.049]: the IC50 is less than 1000 nM. As for `O=C(Cn1nc(-c2ncc[nH]2)c2cccnc21)N1CCN(c2cc(OCCF)c(Cl)cc2F)CC1` [Compound 1.066], the figure is less than 1000 nM.

As to `COc1cc(N2CCN(C(=O)Cn3nc(-c4ncco4)c4cccnc43)CC2)ccc1Cl` [Compound 1.015], the IC50 is less than 1000 nM. Consider `O=C(Cn1nc(-c2ncc[nH]2)c2cccnc21)N1CCN(c2ccc(Cl)c(OCCF)c2)CC1` [Compound 1.075], for which the half-inhibitory concentration (IC50) is less than 1000 nM. Regarding `COc1cc(N2CCN(C(=O)Cn3ncc4ccnc(N=[N+]=[N-])c43)CC2)ccc1Cl` [Compound 1.050], the IC50 is less than 1000 nM. As for `COc1cc(N2CCN(C(=O)Cn3nc(-c4nccn4C)c4cccnc43)CC2)ccc1Cl` [Compound 1.081], the IC50 was less than 1000 nM.

Take `COc1cc(N2CCN(C(=O)Cn3nc(-c4nccs4)c4cccnc43)CC2)ccc1Cl` [Compound 1.011]: the IC50 lay in the range of 2500 to 12500 nM. To `COc1cc(N2CCN(C(=O)Cn3nc(-c4ncc[nH]4)c4cccnc43)CC2)c(F)cc1Cl` [Compound 1.068] belongs less than 1000 nM; to `O=C(Cn1nc(-c2ncc[nH]2)c2cccnc21)N1CCN(c2ccc(Cl)c(OC(F)(F)F)c2)CC1` [Compound 1.079], less than 1000 nM. On to `COc1cc(N2CCN(C(=O)Cn3cc4c(Cl)nccc4n3)CC2)ccc1Cl` [Compound 1.036], for which the IC50 is less than 1000 nM. To `COc1cc(N2CCN(C(=O)Cn3ncc4cc[n+]([O-])cc43)CC2)ccc1Cl` [Compound 1.035] belongs less than 1000 nM. As for `COc1cc(N2CCN(C(=O)Cn3nc(N)c4ccc(C)nc43)CC2)ccc1Cl` [Compound 1.055], the figure is less than 1000 nM; as for `COc1cc(N2CCN(C(=O)Cn3nc4ncccc4c3-c3ncco3)CC2)ccc1Cl` [Compound 1.052], less than 1000 nM; as for `COc1cc(N2CCN(C(=O)Cn3nc(Cl)c4cccnc43)CC2)ccc1Cl` [Compound 1.004], less than 1000 nM. As for `CCOc1cc(N2CCN(C(=O)Cn3nc(-c4ncc[nH]4)c4cccnc43)[C@@H](C)C2)ccc1Cl` [Compound 1.074], the figure is less than 1000 nM; as for `COc1cc(N2CCN(C(=O)Cn3ncc4cccnc43)[C@@H](C)C2)c(F)cc1Cl` [Compound 1.001], less than 1000 nM. As to `COc1cc(N2CCN(C(=O)Cn3nc(-c4ccccn4)c4cccnc43)[C@@H](C)C2)c(F)cc1Cl` [Compound 1.022], the IC50 is less than 1000 nM. For `COc1cc(N2CCN(C(=O)Cn3nc(C#N)c4cccnc43)CC2)ccc1Cl` [Compound 1.026], the IC50 was less than 1000 nM.

With `COc1cc(N2CCN(C(=O)Cn3nc(C(=N)NO)c4cccnc43)CC2)ccc1Cl` [Compound 1.057], the IC50 was less than 1000 nM. As for `COc1cc(N2CCN(C(=O)Cn3nc(-c4nccs4)c4cccnc43)CC2)ccc1Cl` [Compound 1.025], the figure is less than 1000 nM; as for `COc1cc(N2CCN(C(=O)Cn3ncc4c(I)ccnc43)CC2)ccc1Cl` [Compound 1.038], less than 1000 nM. For the molecule `COc1cc(N2CCN(C(=O)Cn3nc(C)c4cccnc43)CC2)ccc1Cl` [Compound 1.014], the IC50 fell in the range of 1000 to 2500 nM. Take `COc1cc(N2CCN(C(=O)Cn3nc(-c4ncc[nH]4)c4cccnc43)C[C@@H]2C)ccc1Cl` [Compound 1.072]: the IC50 is less than 1000 nM. For `COc1cc(N2CCN(C(=O)Cn3nc(N)c4cccnc43)[C@@H](C)C2)c(F)cc1Cl` [Compound 1.003], the IC50 was less than 1000 nM. To `COc1cc(N2CCN(C(=O)Cn3nc(-c4ccccn4)c4cccnc43)CC2)ccc1Cl` [Compound 1.010] belongs less than 1000 nM; to `COc1cc(N2CCN(C(=O)Cn3ncc4cccnc43)CC2)ccc1Cl` [Compound 1.007], less than 1000 nM; to `COc1cc(N2CCN(C(=O)Cn3ncc4ccc(NC(C)=O)nc43)CC2)ccc1Cl` [Compound 1.060], less than 1000 nM. For `COc1cc(N2CCN(C(=O)Cn3nc(-c4ncc[nH]4)c4cccnc43)[C@H](C)C2)ccc1Cl` [Compound 1.073], the IC50 was less than 1000 nM.

In the case of `COc1cc(N2CCN(C(=O)Cn3nc(CS(=O)(=O)O)c4cccnc43)CC2)ccc1Cl` [Compound 1.041], the concentration for half-maximal inhibition (IC50) is 1000 to 2500 nM.

Regarding `COc1cc(N2CCN(C(=O)Cn3nc(-c4ncc[nH]4)c4cccnc43)[C@@H](C)C2)c(F)cc1Cl` [Compound 1.070], the IC50 is less than 1000 nM. For the molecule `CCOc1cc(N2CCN(C(=O)Cn3nc(-c4ncc[nH]4)c4cccnc43)CC2)ccc1Cl` [Compound 1.067], the 50% inhibitory concentration (IC50) is less than 1000 nM.

As for `COc1cc(N2CCN(C(=O)Cn3cc4ccc(C)nc4n3)CC2)ccc1Cl` [Compound 1.032], the 50% inhibitory concentration (IC50) was less than 1000 nM.

`CCOc1cc(N2CCN(C(=O)Cn3nc(-c4ncc[nH]4)c4cccnc43)CC2)c(F)cc1Cl` [Compound 1.065]: the IC50 is less than 1000 nM.

As for `COc1cc(N2CCN(C(=O)Cn3nc(-c4ncon4)c4cccnc43)[C@@H](C)C2)c(F)cc1Cl` [Compound 1.056], the IC50 is less than 1000 nM. In the case of `COc1cc(N2CCN(C(=O)Cn3nc(N4CCOCC4)c4cccnc43)CC2)ccc1Cl` [Compound 1.033], the IC50 is less than 1000 nM.
